Test results taken from ChEMBL document CHEMBL4000204, “Improving potency and metabolic stability by introducing an alkenyl linker to pyridine-based histone deacetylase inhibitors for orally available RUNX3 modulators” (Eur J Med Chem, 2017).

Columns and labels:
in vitro [1] = settings: mouse, liver microsomes
in vitro [2] = settings: mouse, liver microsomes; remark: listed apart in the source

Compound | remaining at 0.5 h, 1000 µM (in vitro [1]) [%] | remaining at 0.5 h, 1000 µM (in vitro [2]) [%]
O=C1CC2(CCCC2)CC(=O)N1CCCCN1CCN(c2ncccn2)CC1 [BUSPIRONE] | 0.29 | 99.1
O=C(/C=C/c1cccn(CCCc2ccc3ccccc3c2)c1=O)NO | 35.5 | 90.3
